# Data published in patent publication US6461866B1, “In vitro photodynamic therapy using non laser light” (Photo Therapeutics Limited, priority 1992, dated 2002).
# System: Chinese hamster ovary (CHO) cells
# Assay: In vitro PDT: survival of CHO cells incubated with HpD after irradiation
# Assay type: cell-based
# Method: In vitro work carried out using Chinese hamster ovary (CHO) cells incubated with […] HpD for 24 hours. Irradiation was centered on 630±12 nm for three light sources, namely a high intensity continuous wave (CW) lamp (non-laser light source in accordance with the present invention using 300 W Xenon lamp), secondly a continuous wave 20 W argon ion pumped dye laser and pulsed 10 W copper vapour pumped dye laser, all with fibre delivery. Light doses ranged from 0 to 2.5 J/cm^2 with light fluences ranging from 20 to 200 mW/cm^2. A light only control was taken at 275 mW/cm^2 for energy doses of 0 to 100 J/cm^2. Following irradiation, cells were plated out, stained and counted for survival.
# FIGS. 2a, 2b, 2c show photosensitiser (HpD) absorption spectrum, cell kill efficacy spectrum and overlapping HpD/lamp spectra. PBS refers to phosphate buffered saline; S.F. means survival fraction.
# FIGS. 3a, 3b show cell survival curves obtained at 20 & 50 mW/cm^2 respectively with highest kill efficiency achieved by the argon ion laser, followed by the copper vapour laser. The lamp kill efficiency of the light source in accordance with the present invention, though similar to the lasers (approx 70%) would be increased by reducing its emission bandwidth from 30 nm.
substance,measurement,setting,value
haematoporhyrin derivative [HpD],lamp kill efficiency (cell survival curves),"CHO cells, 10 pg/ml HpD for 24 hours, 300 W Xenon lamp at 630±12 nm, 20 & 50 mW/cm^2, similar to the lasers",approx 70%
same,photo-inactivation of cancerous CHO cells in vitro,HpD with impinging visible light at 630±12 nm from the non-laser light source,proven photo-inactivation
